PubChem BioAssay (NCI)
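48-hour exposure; five concentrations; linearly interpolated endpoints. GI50 is the concentration that inhibits growth by half. The concentration for full growth arrest is given as TGI.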

Legend:
Test in all cases: DTP human tumour cell line panel, 48 h
COLO 205 colon = system: COLO 205 colon
HCC-2998 colon = system: HCC-2998 colon
HCT-116 colon = system: HCT-116 colon
MALME-3M melanoma = system: MALME-3M melanoma
NCI-H226 lung = system: NCI-H226 lung
OVCAR-3 ovarian = system: OVCAR-3 ovarian
SN12C renal = system: SN12C renal
SW-620 colon = system: SW-620 colon
UACC-257 melanoma = system: UACC-257 melanoma
UO-31 renal = system: UO-31 renal

Row | Structure (SMILES) | TGI (COLO 205 colon) | TGI (HCC-2998 colon) | TGI (HCT-116 colon) | TGI (MALME-3M melanoma) | TGI (NCI-H226 lung) | TGI (OVCAR-3 ovarian) | TGI (SN12C renal) | TGI (SW-620 colon) | TGI (UACC-257 melanoma) | TGI (UO-31 renal) | GI50 (COLO 205 colon) | GI50 (HCT-116 colon) | GI50 (NCI-H226 lung) | GI50 (OVCAR-3 ovarian) | GI50 (SW-620 colon) | GI50 (UACC-257 melanoma) | GI50 (MALME-3M melanoma) | GI50 (HCC-2998 colon) | GI50 (SN12C renal) | GI50 (UO-31 renal)
1 | S=c1[nH]n2c(COc3ccc(Cl)cc3)nnc2s1 | > 100 µM | > 100 µM | > 100 µM | > 100 µM | > 100 µM | > 100 µM | > 100 µM | > 100 µM | > 100 µM | > 100 µM | – | – | – | – | – | – | – | – | – | –
2 | CSCC(CO)NC(=O)/C=C/c1c(C)[nH]c(=O)[nH]c1=O (stereo not given) | > 775 µM | 479 µM | > 875 µM | > 875 µM | > 875 µM | 444 µM | > 875 µM | > 492 µM | > 875 µM | > 875 µM | – | – | – | – | – | – | – | – | – | –
3 | c1ccc2c(c1)SCCc1cn[nH]c1-2 | > 100 µM | > 100 µM | > 100 µM | > 100 µM | > 100 µM | > 100 µM | > 100 µM | > 100 µM | > 100 µM | > 100 µM | – | – | – | – | – | – | – | – | – | –
4 | O=C(Sc1n[nH]c(=O)[nH]c1=O)c1cccc2nc3ccccc3nc12 | 5.76 µM | > 100 µM | > 100 µM | 24.8 µM | > 100 µM | > 100 µM | > 100 µM | > 100 µM | 39 µM | – | – | – | – | – | – | – | – | – | – | –
5 | Nc1ccc(Cn2ccc3c4c(N)nc(N)nc4ccc32)cc1 | 2.72 µM | 3 µM | 1.5 µM | 7.04 µM | 27.7 µM | 2.51 µM | 8.67 µM | 2.27 µM | 8.02 µM | 19 µM | – | – | – | – | – | – | – | – | – | –
6 | CC(=O)OC1CC(OC2C(O)CC(OC3C(O)CC(OC4CCC5(C)C(CCC6C5CCC5(C)C(C7=CC(=O)OC7)CCC65O)C4)OC3C)OC2C)OC(C)C1OC1OC(CO)C(O)C(O)C1O (stereo not given) | 0.168 µM | 0.29 µM | 0.0472 µM | 0.112 µM | 0.241 µM | 0.0883 µM | 0.286 µM | 0.148 µM | 0.422 µM | 0.13 µM | – | – | – | – | – | – | – | – | – | –
7 | O=S(O)CCCSSSCCCS(=O)O | – | > 100 µM | > 100 µM | > 100 µM | – | > 100 µM | > 100 µM | – | > 100 µM | > 100 µM | – | – | – | – | – | – | – | – | – | –
8 | Cc1cccc2c1Sc1ccccc1C2NC(=O)CN(C)C (stereo not given) | > 100 µM | > 100 µM | > 100 µM | – | > 100 µM | – | > 100 µM | > 100 µM | > 100 µM | > 100 µM | – | – | – | – | – | – | – | – | – | –
9 | COCCNCc1ccc(-c2cc3nccc(Oc4ccc(NC(=O)C5(C(=O)Nc6ccc(F)cc6)CC5)cc4F)c3s2)nc1 | 3.68 µM | – | 3.92 µM | – | 4.73 µM | 4.82 µM | – | 3.27 µM | 3.33 µM | – | 1.55 µM | 1.78 µM | 1.89 µM | 2.2 µM | 1.26 µM | 1.59 µM | – | – | – | –
10 | CN(c1ccccc1)c1nc(=[N+]2CCCC2)ss1 | > 100 µM | > 100 µM | > 100 µM | > 100 µM | > 100 µM | > 100 µM | > 100 µM | > 100 µM | > 100 µM | > 100 µM | – | – | – | – | – | – | – | – | – | –
11 | CO/C=C1\OC(=O)C=C1OC | > 100 µM | > 100 µM | > 100 µM | > 100 µM | > 100 µM | > 100 µM | > 100 µM | > 100 µM | > 100 µM | > 100 µM | – | – | – | – | – | – | – | – | – | –
12 | NNC(=O)c1cc([N+](=O)[O-])ccc1NC(=O)C12CC3CC(CC(C3)C1)C2 | 64.2 µM | 83.4 µM | > 100 µM | 56.1 µM | 40.3 µM | 84.3 µM | > 100 µM | > 100 µM | 59.3 µM | 31.5 µM | – | – | – | – | – | – | – | – | – | –
13 | Cc1ccc(Nc2nc(=O)c3c([nH]c4ccccc43)s2)cc1 | 24.7 µM | – | – | 26.8 µM | – | 27.3 µM | 31.6 µM | 24.3 µM | 31.5 µM | 7.32 µM | – | – | – | – | – | – | – | – | – | –
14 | CN(C)c1cccc(OC(=O)NCCCl)c1 | > 100 µM | > 100 µM | > 100 µM | > 100 µM | > 100 µM | > 100 µM | > 100 µM | > 100 µM | > 100 µM | > 100 µM | – | – | – | – | – | – | > 100 µM | – | – | –
15 | O=C1C(c2c(O)[nH]c3ccc(Cl)cc23)=Nc2ccccc21 | > 100 µM | > 26.8 µM | 5.18 µM | > 58.4 µM | 37 µM | 17.9 µM | > 100 µM | > 100 µM | > 100 µM | 2.25 µM | – | – | – | – | – | – | – | – | – | –
16 | c1csc(-c2ccc(CNc3c4ccccc4nc4ccccc34)cc2)c1 | – | 3.01 µM | – | – | 38.6 µM | 2.97 µM | 28.8 µM | – | 4.06 µM | 2.57 µM | – | – | 5.57 µM | 1.58 µM | – | 2 µM | – | 1.53 µM | 9.15 µM | 1.19 µM
17 | c1ccc2c(c1)SP1Sc3ccccc3P21 (stereo not given) | > 100 µM | > 100 µM | > 100 µM | > 100 µM | > 66.6 µM | > 100 µM | > 100 µM | > 100 µM | > 100 µM | > 100 µM | – | – | – | – | – | – | – | – | – | –
18 | CC1(C)N=C(c2ccccc2)SC12S[C@@H]1CCCC[C@H]1S2 | > 100 µM | – | > 100 µM | > 100 µM | > 100 µM | > 100 µM | > 100 µM | > 100 µM | > 100 µM | > 100 µM | – | – | – | – | – | – | – | – | – | –
